# Source: patent US20250345426A1, “METHODS FOR MAKING AND USING THERAPEUTIC CELLS” (THE REGENTS OF THE UNIVERSITY OF CALIFORNIA, priority 2022, published 2025)
# Tested on: rituximab CAR-T cells
# Test: Antigen-independent CAR-T cell metabolic activity, rituximab CAR-T cells (data not shown)
# Format: cell-based, human
# From the text: Cell line generation and maintenance. HEK 293T and Raji cells were obtained from ATCC. Leu16 and rituximab scFv-expressing HEK293T cell lines were generated by retroviral transduction of HEK293T cells to express each scFv fused with EGFP via a 2A peptide, and EGFP+ cells were sorted by fluorescence-activated cell sorting (FACS) on a FACSAria (II) cell sorter (BD Bioscience) at the UCLA Flow Cytometry Core Facility. CD20+K562 cells were generated by transduction of K562 cells with a retroviral construct encoding full-length CD20. K562 cells with varying CD20 expression levels were generated by FACS sorting of CD20+K562 into bins of different antigen densities. CHLA-255-Luc-EGFP cells were generated by retroviral transduction of CHLA-255-Luc to express EGFP, and EGFP+ cells were enriched by FACS. HEK 293T cells were cultured in DMEM (HyClone) supplemented with 10% heat-inactivated FBS (HI-FBS; ThermoFisher). CHLA-255-Luc-EGFP cells were cultured in IMDM (ThermoFisher) with 10% HI-FBS. Primary human T cells, Raji, and K562 cells were cultured in RPMI-1640 (Lonza) with 10% HI-FBS. For CAR-T cells used in metabolomics studies, T cells were cultured in RPMI-1640 containing 2 g/L of 1,2-13C-glucose with 10% heat-inactivated dialyzed FBS (HI-dFBS).
structure (smiles),measurement,value
"C=C(C)[C@@H]1CC[C@]2(CO)CC[C@]3(C)[C@H](CC[C@@H]4[C@@]5(C)CC[C@H](O)C(C)(C)[C@@H]5CC[C@]43C)[C@@H]12 [betulin, Betulin]",antigen-independent CAR-T cell metabolic activity,increases
